Test results as given in patent US20260055114A1, “IMIDAZO[1,2-B]PYRIDAZINE INHIBITORS OF CYCLIN-DEPENDENT KINASES” (H. LEE MOFFITT CANCER CENTER AND RESEARCH INSTITUTE, INC., priority 2022, published 2026).

Tests used:
CCNK = CCNK degradation (DC50, Dmax); format: cell-based; conditions: for Dmax (%): CCNK degradation
CDK12 = CDK12 (Homo sapiens, UniProt Q9NYV4); test: Inhibition of cyclin-dependent kinase 12 (% enzyme activity at 1 uM and IC50); format: biochemical; conditions: for remaining activity at 1 µM: 1 uM compound
CDK12, sequence (Q9NYV4 whole entry): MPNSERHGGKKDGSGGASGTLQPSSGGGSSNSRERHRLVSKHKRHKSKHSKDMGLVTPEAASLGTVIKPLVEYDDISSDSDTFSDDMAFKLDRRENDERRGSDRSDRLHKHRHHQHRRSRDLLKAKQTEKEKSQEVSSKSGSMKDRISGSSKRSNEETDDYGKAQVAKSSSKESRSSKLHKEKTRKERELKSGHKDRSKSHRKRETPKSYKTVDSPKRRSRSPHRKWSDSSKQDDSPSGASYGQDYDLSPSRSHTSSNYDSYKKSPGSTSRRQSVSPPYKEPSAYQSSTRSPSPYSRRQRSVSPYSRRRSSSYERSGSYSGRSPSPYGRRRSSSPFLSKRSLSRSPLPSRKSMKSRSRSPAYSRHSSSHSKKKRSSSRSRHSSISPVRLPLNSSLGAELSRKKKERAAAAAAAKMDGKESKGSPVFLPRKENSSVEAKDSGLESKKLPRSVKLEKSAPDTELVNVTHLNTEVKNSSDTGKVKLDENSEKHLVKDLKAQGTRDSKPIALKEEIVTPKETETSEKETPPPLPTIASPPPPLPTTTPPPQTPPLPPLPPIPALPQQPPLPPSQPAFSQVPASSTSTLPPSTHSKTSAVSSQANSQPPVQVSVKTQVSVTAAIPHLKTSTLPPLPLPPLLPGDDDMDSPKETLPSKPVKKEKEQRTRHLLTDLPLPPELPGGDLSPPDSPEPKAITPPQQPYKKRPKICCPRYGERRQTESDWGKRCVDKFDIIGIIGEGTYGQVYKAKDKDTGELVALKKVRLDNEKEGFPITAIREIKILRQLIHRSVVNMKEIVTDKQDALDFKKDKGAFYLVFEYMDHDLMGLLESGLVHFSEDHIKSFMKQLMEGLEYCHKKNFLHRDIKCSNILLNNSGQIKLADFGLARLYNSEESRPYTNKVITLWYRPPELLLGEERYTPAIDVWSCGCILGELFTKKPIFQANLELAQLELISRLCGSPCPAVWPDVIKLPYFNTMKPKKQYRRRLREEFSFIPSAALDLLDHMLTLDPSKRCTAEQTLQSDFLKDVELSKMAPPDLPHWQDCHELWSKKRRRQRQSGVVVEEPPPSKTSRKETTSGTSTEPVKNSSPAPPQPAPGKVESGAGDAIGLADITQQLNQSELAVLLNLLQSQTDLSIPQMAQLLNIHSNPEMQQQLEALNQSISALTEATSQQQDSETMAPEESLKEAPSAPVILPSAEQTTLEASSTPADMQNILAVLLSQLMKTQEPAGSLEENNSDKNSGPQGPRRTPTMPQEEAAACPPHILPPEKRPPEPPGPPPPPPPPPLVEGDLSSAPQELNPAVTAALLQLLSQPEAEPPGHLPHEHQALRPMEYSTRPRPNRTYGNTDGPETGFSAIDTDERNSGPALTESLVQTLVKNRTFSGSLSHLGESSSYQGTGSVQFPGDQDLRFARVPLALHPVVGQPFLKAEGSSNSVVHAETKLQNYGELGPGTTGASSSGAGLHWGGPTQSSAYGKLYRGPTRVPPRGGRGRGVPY
CDK12, sequence (O75909 whole entry partner): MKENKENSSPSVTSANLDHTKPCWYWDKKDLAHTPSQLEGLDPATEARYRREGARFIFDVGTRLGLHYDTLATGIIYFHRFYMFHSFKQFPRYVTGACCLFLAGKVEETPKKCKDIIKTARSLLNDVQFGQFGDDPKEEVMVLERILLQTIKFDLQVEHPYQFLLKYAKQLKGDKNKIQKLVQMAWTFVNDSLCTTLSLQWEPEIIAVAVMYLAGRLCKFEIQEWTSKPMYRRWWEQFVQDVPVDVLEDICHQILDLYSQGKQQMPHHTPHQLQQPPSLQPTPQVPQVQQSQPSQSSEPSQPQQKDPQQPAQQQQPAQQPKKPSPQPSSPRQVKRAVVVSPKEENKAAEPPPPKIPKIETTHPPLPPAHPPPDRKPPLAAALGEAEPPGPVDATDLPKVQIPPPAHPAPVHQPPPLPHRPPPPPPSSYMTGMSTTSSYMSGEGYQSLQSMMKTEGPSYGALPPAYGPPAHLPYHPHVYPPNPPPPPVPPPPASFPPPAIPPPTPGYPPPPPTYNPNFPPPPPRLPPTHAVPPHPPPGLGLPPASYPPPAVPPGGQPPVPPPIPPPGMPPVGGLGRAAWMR

MDA-MB-231 cell line = test: Antiproliferative activity, MDA-MB-231 cell line (GI50); format: cell-based; conditions: Homo sapiens

| DC50 (CCNK) | IC50 (CDK12) | GI50 (MDA-MB-231 cell line) | remaining activity at 1 µM (CDK12) | SMILES | Dmax (%) (CCNK) |
| --- | --- | --- | --- | --- | --- |
| 200 nM | 2440 nM | 130 nM |  | CC1(C)CN(c2cc(NCc3nc4cc(Cl)c(Cl)cc4[nH]3)c3ncc(-c4cnn(C(F)F)c4)n3n2)CCO1 [Cmpd 48, N-((5,6-dichloro-1H-benzo[d]imidazol-2-yl)methyl)-3-(1-(difluoromethyl)-1H-pyrazol-4-yl)-6-(2,2-dimethylmorpholino) imidazo[1,2-b]pyridazin-8-amine] | 100% |
| 1900 nM |  | 5130 nM | 55% | CN1CCN(c2cc(NCc3nc4c(F)cccc4[nH]3)c3ncc(-c4cnn(C(F)F)c4)n3n2)CC1 [Cmpd 51, 3-(1-(difluoromethyl)-1H-pyrazol-4-yl)-N-((4-fluoro-1H-benzo[d]imidazol-2-yl)methyl)-6-(4-methylpiperazin-1-yl) imidazo[1,2-b]pyridazin-8-amine] | 50% |
| 30 nM | 359 nM | 390 nM | 23% | Fc1cccc2[nH]c(CNc3cc(N4CCOCC4)nn4c(-c5cnn(C(F)F)c5)cnc34)nc12 [Cmpd 52, 3-(1-(difluoromethyl)-1H-pyrazol-4-yl)-N-((4-fluoro-1H-benzo[d]imidazol-2-yl)methyl)-6-morpholinoimidazo[1,2-b]pyridazin-8-amine] | 80% |
| 110 nM | 175 nM | 440 nM |  | CN1CCN(c2cc(NCc3nc4c(F)c(F)ccc4[nH]3)c3ncc(-c4cnn(C(F)F)c4)n3n2)CC1 [Cmpd 54, N-((4,5-difluoro-1H-benzo[d]imidazol-2-yl)methyl)-3-(1-(difluoromethyl)-1H-pyrazol-4-yl)-6-(4-methylpiperazin-1-yl) imidazo[1,2-b]pyridazin-8-amine] | 85% |
| 70 nM | 283 nM | 472 nM |  | Fc1ccc2[nH]c(CNc3cc(N4CCOCC4)nn4c(-c5cnn(C(F)F)c5)cnc34)nc2c1F [Cmpd 55, N-((4,5-difluoro-1H-benzo[d]imidazol-2-yl)methyl)-3-(1-(difluoromethyl)-1H-pyrazol-4-yl)-6-morpholinoimidazo[1,2-b]pyridazin-8-amine] | 80% |
| 240 nM | 54 nM | 419 nM |  | Cc1ccnc2[nH]c(CNc3cc(N4CCN(C)CC4)nn4c(-c5cnn(C(F)F)c5)cnc34)nc12 [Cmpd 57, 3-(1-(difluoromethyl)-1H-pyrazol-4-yl)-N-((7-methyl-3H-imidazo[4,5-b]pyridin-2-yl)methyl)-6-(4-methylpiperazin-1-yl) imidazo[1,2-b]pyridazin-8-amine] | 65% |
| 260 nM | 65 nM | 406 nM |  | Cc1ccnc2[nH]c(CNc3cc(N4CCOCC4)nn4c(-c5cnn(C(F)F)c5)cnc34)nc12 [Cmpd 58, 3-(1-(difluoromethyl)-1H-pyrazol-4-yl)-N-((7-methyl-3H-imidazo[4,5-b]pyridin-2-yl)methyl)-6-morpholinoimidazo[1,2-b]pyridazin-8-amine] | 100% |
| 1400 nM | 907 nM | 284 nM |  | CN1CCN(c2cc(NCc3nc4cc(Cl)c(Cl)cc4[nH]3)c3ncc(-c4cn[nH]c4)n3n2)CC1 [Cmpd 60, N-((5,6-dichloro-1H-benzo[d]imidazol-2-yl)methyl)-6-(4-methylpiperazin-1-yl)-3-(1H-pyrazol-4-yl) imidazo[1,2-b]pyridazin-8-amine] | 100% |
| 590 nM | 1320 nM | 235 nM |  | Clc1cc2nc(CNc3cc(N4CCOCC4)nn4c(-c5cn[nH]c5)cnc34)[nH]c2cc1Cl [Cmpd 61, N-((5,6-dichloro-1H-benzo[d]imidazol-2-yl)methyl)-6-morpholino-3-(1H-pyrazol-4-yl) imidazo[1,2-b]pyridazin-8-amine] | 100% |
| 180 nM | 2010 nM | 78 nM |  | CN1CCN(c2cc(NCc3nc4cc(Cl)c(Cl)cc4[nH]3)c3ncc(-c4ccsc4)n3n2)CC1 [Cmpd 63, N-((5,6-dichloro-1H-benzo[d]imidazol-2-yl)methyl)-6-(4-methylpiperazin-1-yl)-3-(thiophen-3-yl) imidazo[1,2-b]pyridazin-8-amine] | 100% |
| 340 nM | 4250 nM | 168 nM |  | Clc1cc2nc(CNc3cc(N4CCOCC4)nn4c(-c5ccsc5)cnc34)[nH]c2cc1Cl [Cmpd 64, N-((5,6-dichloro-1H-benzo[d]imidazol-2-yl)methyl)-6-morpholino-3-(thiophen-3-yl) imidazo[1,2-b]pyridazin-8-amine] | 100% |
| 80 nM | 90 nM | 180 nM |  | CN1CCN(c2cc(NCc3nc4cccc(Cl)c4[nH]3)c3ncc(-c4ccsc4)n3n2)CC1 [Cmpd 66, N-((7-chloro-1H-benzo[d]imidazol-2-yl)methyl)-6-(4-methylpiperazin-1-yl)-3-(thiophen-3-yl) imidazo[1,2-b]pyridazin-8-amine] | 85% |
| 80 nM | 300 nM | 207 nM |  | Clc1cccc2nc(CNc3cc(N4CCOCC4)nn4c(-c5ccsc5)cnc34)[nH]c12 [Cmpd 67, N-((7-chloro-1H-benzo[d]imidazol-2-yl)methyl)-6-morpholino-3-(thiophen-3-yl) imidazo[1,2-b]pyridazin-8-amine] | 85% |
| 10 nM | 65 nM | 33 nM |  | Clc1cccc2nc(CNc3cc(N4CCNCC4)nn4c(-c5ccsc5)cnc34)[nH]c12 [Cmpd 68, N-((7-chloro-1H-benzo[d]imidazol-2-yl)methyl)-6-(piperazin-1-yl)-3-(thiophen-3-yl) imidazo[1,2-b]pyridazin-8-amine] | 90% |
| 150 nM | 57 nM | 92 nM |  | NC1CCN(c2cc(NCc3nc4cccc(Cl)c4[nH]3)c3ncc(-c4ccsc4)n3n2)C1 (centres unmarked) [Cmpd 69, 6-(3-aminopyrrolidin-1-yl)-N-((7-chloro-1H-benzo[d]imidazol-2-yl)methyl)-3-(thiophen-3-yl) imidazo[1,2-b]pyridazin-8-amine] | 85% |
| 160 nM | 78 nM | 73 nM |  | NC1CCN(c2cc(NCc3nc4cccc(Cl)c4[nH]3)c3ncc(-c4ccsc4)n3n2)CC1 [Cmpd 70, 6-(4-aminopiperidin-1-yl)-N-((7-chloro-1H-benzo[d]imidazol-2-yl)methyl)-3-(thiophen-3-yl) imidazo[1,2-b]pyridazin-8-amine] | 95% |
| 160 nM | 130 nM | 71 nM |  | CN1CCC(Nc2cc(NCc3nc4cccc(Cl)c4[nH]3)c3ncc(-c4ccsc4)n3n2)CC1 [Cmpd 71, N8-((7-chloro-1H-benzo[d]imidazol-2-yl)methyl)-N6-(1-methylpiperidin-4-yl)-3-(thiophen-3-yl) imidazo[1,2-b]pyridazine-6,8-diamine] | 100% |
| 50 nM | 56 nM | 49 nM |  | Clc1cccc2nc(CNc3cc(NC4CCNCC4)nn4c(-c5ccsc5)cnc34)[nH]c12 [Cmpd 72, N8-((7-chloro-1H-benzo[d]imidazol-2-yl)methyl)-N6-(piperidin-4-yl)-3-(thiophen-3-yl) imidazo[1,2-b]pyridazine-6,8-diamine] | 100% |
| 140 nM | 38 nM | 146 nM |  | Cc1ccnc2[nH]c(CNc3cc(N4CCN(C)CC4)nn4c(-c5ccsc5)cnc34)nc12 [Cmpd 75, N-((7-methyl-3H-imidazo[4,5-b]pyridin-2-yl)methyl)-6-(4-methylpiperazin-1-yl)-3-(thiophen-3-yl) imidazo[1,2-b]pyridazin-8-amine] | 80% |
| 250 nM | 7380 nM | 376 nM |  | Cc1ccnc2[nH]c(CNc3cc(N4CCOCC4)nn4c(-c5ccsc5)cnc34)nc12 [Cmpd 76, N-((7-methyl-3H-imidazo[4,5-b]pyridin-2-yl)methyl)-6-morpholino-3-(thiophen-3-yl) imidazo[1,2-b]pyridazin-8-amine] | 75% |
| 260 nM | 473 nM | 425 nM | 24% | CN1CCN(c2cc(NCc3nc4c(F)c(F)ccc4[nH]3)c3ncc(-c4ccsc4)n3n2)CC1 [Cmpd 78, N-((4,5-difluoro-1H-benzo[d]imidazol-2-yl)methyl)-6-(4-methylpiperazin-1-yl)-3-(thiophen-3-yl) imidazo[1,2-b]pyridazin-8-amine] | 80% |
| 1700 nM | 5000 nM | 1470 nM | 80% | CN1CCN(c2cc(NCc3nc4cc(Cl)c(Cl)cc4[nH]3)c3ncc(-c4csc(C#N)c4)n3n2)CC1 [Cmpd 79, 4-(8-(((5,6-dichloro-1H-benzo[d]imidazol-2-yl)methyl)amino)-6-(4-methylpiperazin-1-yl)imidazo[1,2-b]pyridazin-3-yl)thiophene-2-carbonitrile] | 75% |
| 1000 nM | 3000 nM | 867 nM | 75% | N#Cc1cc(-c2cnc3c(NCc4nc5cc(Cl)c(Cl)cc5[nH]4)cc(N4CCOCC4)nn23)cs1 [Cmpd 80, 4-(8-(((5,6-dichloro-1H-benzo[d]imidazol-2-yl)methyl)amino)-6-morpholinoimidazo[1,2-b]pyridazin-3-yl)thiophene-2-carbonitrile] | 95% |
| 300 nM | 647 nM | 1920 nM | 33% | CN1CCN(c2cc(NCc3nc4cccc(Cl)c4[nH]3)c3ncc(-c4csc(C#N)c4)n3n2)CC1 [Cmpd 81, 4-(8-(((7-chloro-1/-benzo[d]imidazol-2-yl)methyl)amino)-6-(4-methylpiperazin-1-yl)imidazo[1,2-b]pyridazin-3-yl)thiophene-2-carbonitrile] | 80% |
